In patent publication US20210061800A1, “COMPOUNDS FOR TREATING EYE DISEASES AND METHODS THEREOF” (Agency for Science, Technology and Research, priority 2017, published 2021):
pEC50: −log10 of the molar value.

Columns and labels:
PDGFR-WT [1] = molecular target: T1, PDGFR-WT (Homo sapiens, UniProt P09619); assay: PDGFRβ-dependent growth of Ba/F3 cells; format: cell-based; settings: inhibition of PDGFRβ-dependent growth of Ba/F3 cells; read-out: effective concentration-50 (EC50) against PDGFR-WT
Description: Based on in silico modelling and simulation, different derivatives of the diphenyl oxyacetamide based compounds (formula (I)) were synthesized. The potency of the compounds were measured in terms of its ability to inhibit the PDGFRβ-dependent growth of Ba/F3 cells.
FIG. 6 illustrates work flow for synthesis of G6 derivatives Effective Concentration-50 (EC50) as determined using Ba/F3 cell.
Target sequence in this assay (P09619 554-1106 limits assumed, stated change not applied): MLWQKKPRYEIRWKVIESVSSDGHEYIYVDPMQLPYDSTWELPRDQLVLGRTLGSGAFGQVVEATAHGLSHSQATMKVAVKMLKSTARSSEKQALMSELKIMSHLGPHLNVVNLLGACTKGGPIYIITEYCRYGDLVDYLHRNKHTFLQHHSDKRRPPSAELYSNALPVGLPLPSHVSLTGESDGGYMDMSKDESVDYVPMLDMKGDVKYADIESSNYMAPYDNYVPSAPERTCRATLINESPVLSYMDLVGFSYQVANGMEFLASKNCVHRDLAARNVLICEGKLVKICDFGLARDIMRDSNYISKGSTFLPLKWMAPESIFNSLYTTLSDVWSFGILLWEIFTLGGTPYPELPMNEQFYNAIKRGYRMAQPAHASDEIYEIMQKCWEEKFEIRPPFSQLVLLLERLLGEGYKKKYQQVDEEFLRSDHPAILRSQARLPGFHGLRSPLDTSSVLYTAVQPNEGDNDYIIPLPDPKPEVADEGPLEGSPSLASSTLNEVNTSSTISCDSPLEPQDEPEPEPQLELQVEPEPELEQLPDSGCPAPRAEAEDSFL

human PDGFRβ = molecular target: T2, human PDGFRβ (Homo sapiens, UniProt P09619); assay: PDGFRβ signaling in Ba/F3 cells (Western blot); format: cell-based; settings: BaF3 cells expressing PDGFRβ, PDGF-induced
T2 construct: expressed in transfected cells; host or cells: Ba/F3
T2 sequence (P09619 33-1106): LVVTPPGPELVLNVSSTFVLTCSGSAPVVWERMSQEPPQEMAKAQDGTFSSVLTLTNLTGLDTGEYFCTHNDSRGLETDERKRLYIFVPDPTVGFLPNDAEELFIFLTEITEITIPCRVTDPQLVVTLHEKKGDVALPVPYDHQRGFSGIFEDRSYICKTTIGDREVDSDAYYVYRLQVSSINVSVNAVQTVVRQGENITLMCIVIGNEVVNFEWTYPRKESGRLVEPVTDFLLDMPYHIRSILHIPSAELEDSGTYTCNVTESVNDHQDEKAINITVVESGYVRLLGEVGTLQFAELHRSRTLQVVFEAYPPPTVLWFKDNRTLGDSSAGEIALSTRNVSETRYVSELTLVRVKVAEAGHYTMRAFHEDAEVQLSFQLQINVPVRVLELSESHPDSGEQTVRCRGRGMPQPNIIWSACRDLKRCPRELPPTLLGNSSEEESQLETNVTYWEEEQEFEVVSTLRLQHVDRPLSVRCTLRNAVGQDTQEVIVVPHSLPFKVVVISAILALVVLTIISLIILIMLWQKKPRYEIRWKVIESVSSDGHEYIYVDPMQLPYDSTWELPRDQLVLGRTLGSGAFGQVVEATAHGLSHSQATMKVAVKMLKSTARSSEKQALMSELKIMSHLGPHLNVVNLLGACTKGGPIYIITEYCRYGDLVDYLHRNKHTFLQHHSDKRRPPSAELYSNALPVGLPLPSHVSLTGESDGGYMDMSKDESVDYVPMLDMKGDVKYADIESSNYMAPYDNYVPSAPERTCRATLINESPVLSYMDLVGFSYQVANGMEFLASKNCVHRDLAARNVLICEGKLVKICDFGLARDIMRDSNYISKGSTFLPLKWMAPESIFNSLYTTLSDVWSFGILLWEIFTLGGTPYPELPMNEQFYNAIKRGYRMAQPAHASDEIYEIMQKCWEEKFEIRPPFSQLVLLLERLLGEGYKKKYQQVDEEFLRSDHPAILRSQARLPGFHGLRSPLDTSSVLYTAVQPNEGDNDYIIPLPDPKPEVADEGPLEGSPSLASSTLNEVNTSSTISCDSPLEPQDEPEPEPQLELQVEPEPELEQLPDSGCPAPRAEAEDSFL
Description: FIG. 7 illustrates a Western-blot analysis result of Ex 2 and Ex 3 (compounds of the present invention) to inhibit PDGFRβ signaling in BaF3 cells expressing PDGFRβ.
Ba/F3 cells were constructed to express human PDGFRβ under the control of CMV promoter. The PDGFRβ signaling was induced by addition of the ligand PDGF. The effect of […] and Ex 3 was added to the cell cultures at different concentrations to determine their efficacy to inhibit the PDGFRβ signaling as reflected by the inhibition of PDGFRβ autophosphorylation and the phosphorylation of Shp2, a downstream effector of the PDGFRβ signal pathway.
FIG. 7 illustrates a Western-blot analysis result, illustrating the efficacy of compounds of the present invention to inhibit PDGFRβ signaling in BaF3 cells expressing PDGFRβ.

[2] = system: Choroid Neo-Vascularization; assay: Laser CNV mouse model for wet-AMD; format: in vivo; settings: injection into one eye, imaged for two weeks
Description: In vivo testing of Ex 3 in CNV (Choroid Neo-Vascularization)-laser mouse model was performed. Eyes of young mice were treated with laser to create choroid damage which results in the leakage of blood vessels (seen as light areas of FIG. 11). In each mouse, one eye was injected with a predetermined amount of Ex 3 while the other eye remained untreated to serve as ‘treatment(−)’ control. Mouse eyes were imaged intermittently for two weeks. The efficacy of the compound Ex 3 is indicated by its ability to prevent the leakage of the blood vessels (reduction or disappearance of the bright green areas).
FIG. 11 illustrates the efficacy of a compound of the present invention in Laser CNV mouse model for wet-AMD.

[3] = system: Choroid membrane preparations; assay: Ex vivo organoid model of angiogenesis (choroid membrane preparations in Matrigel); format: cell-based, mice; settings: mouse choroid in Matrigel
Description: Choroid membrane preparations isolated from young mice were cultured in Matrigel. Matrigel containing these preparations were layered with growth medium containing various concentrations of Ex 2 and Ex 3. The ‘blood vessel’ growth was monitored and quantified using a specialized image analysis software.
FIG. 10 illustrates the efficacy of the compounds of the present invention in an ex vivo organoid model of angiogenesis. Compounds of the present invention show anti-angiogenesis in organoid model.

PDGFR-WT [4] = molecular target: T1, PDGFR-WT; assay: PDGFRβ signaling in HEK293 cells (Western blot: PDGFRβ autophosphorylation, Shp2 phosphorylation); format: cell-based; parameters: expressed in transfected cells; host or cells: HEK293; settings: 20 ng/ml PDGF
Description: FIG. 5 illustrates a Western-blot analysis result of Ex 1 (a compound of the present invention), in relation to inhibit PDGFRβ signaling in HEK293 cells expressing PDGFRβ.
Human Embryonic kidney cells (HEK293) were constructed to express human PDGFRWT under the control of constitutive CMV promoter. Cells were grown in the presence of 20 ng/ml PDGF (the ligand for the PDGFRβ) to activate the PDGFRβ. Different concentration of Ex 1 were added to study its effect on the PDGFRβ-mediated signaling. Autophosphorylation of PDGFRβ and Shp2 phosphorylation were monitored by Western blotting were used as the markers for PDGFRβ signaling. B Actin was used as an internal control.
Target sequence in this assay (P09619 33-1106): as above

human PDGFRβWT = assay: Humanized yeast screen: prevention of PDGFR-induced death of yeast cells; settings: 10 μM; compared to DMSO or Gleevec
Description: A humanized yeast screen was performed. Yeast cells carrying stably integrated GAL-PDGFRβ were first grown in YEP+raff medium and then seeded into fresh YEP+raff+GAL medium to induce expression of human PDGFRβWT.

| SMILES | pEC50 (PDGFR-WT [1]) | activity against PDGFRβ-WT signaling (human PDGFRβ) | efficacy in preventing leakage of blood vessels [2] | anti-angiogenesis efficacy ('blood vessel' growth) [3] | inhibition of PDGFRWT-mediated signaling (PDGFR-WT [4]) | cell growth (OD reading) of humanized yeast expressing PDGFRβ (human PDGFRβWT) |
| --- | --- | --- | --- | --- | --- | --- |
| Cc1ccc(NC(=O)COc2ccc(-c3cnc4ccccn34)cc2)cc1C(F)(F)F [Ex 3, N-[4-methyl-3-(trifluoromethyl)phenyl]-2-[4-imidazo[1,2-a]pyridin-3-ylphenoxy]acetamide] | 8.00 | show activities against PDGFRβ-WT | efficacy | – | – | – |
| Cc1ccc(NC(=O)COc2ccc(-c3cnc4ccccn34)cc2)cc1C [Ex 2, N-(3,4-dimethylphenyl)-2-[4-imidazo[1,2-a]pyridin-3-ylphenoxy]acetamide] | 8.00 | show activities against PDGFRβ-WT | – | better anti-angiogenesis efficacy then Ex 3 | – | – |
| Cc1ccc(NC(=O)COc2ccc(-n3cnnn3)cc2)cc1C [Ex 1, N-(3,4-dimethylphenyl)-2-[4-(tetrazol-1-yl)phenoxy]acetamide] | – | – | – | – | efficiently inhibits the PDGFRWT-mediated signaling | allows cell-growth more efficiently compared to DMSO or Gleevec |
